Reference: patent publication US20060247416A1, “HIV gp41 HR2-derived synthetic peptides, and their use in therapy to inhibit transmission of human immunodeficiency virus” (priority 2004, published 2006)

Key:
[1] = 10 mg/ml in PBS, about pH 7.3 to about pH 7.5, 37° C., after several hours
Description: Each was individually tested for stability in aqueous solution by adding the peptide at a concentration of 10 mg/ml to phosphate-buffered saline (PBS), and by measuring (e.g., by HPLC) at different time points over a period of 1 week (168 hours) the amount of peptide remaining in solution at a range of about pH 7.3 to about pH 7.5 at 37° C.

[2] = tested on: HIV-1LAI; conditions: Lawless et al., 1996; cited from earlier work
[3] = tested on: HIV-1; conditions: regimen of antiviral agents containing T20 versus same regimen without T20; cited from earlier work

## enfuvirtide
[1]
  stability in aqueous solution: minimal to no peptide detected in solution
[2]
  EC50 against HIV-1LAI: 0.5 ng/mL
[3]
  HIV-1 viral load: significantly reduces
  circulating CD4+ cell population: significantly increases
